One test has as its target D(2) dopamine receptor (Homo sapiens, UniProt P14416). Kind of test: Ability to displace [125I]sulpiride from human Dopamine receptor D2, expressed in CHO cells. Type of test: cell-based.
In the next test the target is D(3) dopamine receptor (Homo sapiens, UniProt P35462). As to the kind of experiment: Ability to displace [125I]-sulpiride from human Dopamine receptor D3, expressed in CHO cells. Type of test: cell-based.
Test [1] deals with Dopamine receptors; D2 & D3 (Homo sapiens) (UniProt P14416+P35462). As to the kind of experiment: Ratio of human dopamine D3 receptor to that of human dopamine D2 receptor was evaluated. Type of test: protein assay.

Each structure is given as a SMILES string.

D(2) dopamine receptor, sequence (P14416 whole entry): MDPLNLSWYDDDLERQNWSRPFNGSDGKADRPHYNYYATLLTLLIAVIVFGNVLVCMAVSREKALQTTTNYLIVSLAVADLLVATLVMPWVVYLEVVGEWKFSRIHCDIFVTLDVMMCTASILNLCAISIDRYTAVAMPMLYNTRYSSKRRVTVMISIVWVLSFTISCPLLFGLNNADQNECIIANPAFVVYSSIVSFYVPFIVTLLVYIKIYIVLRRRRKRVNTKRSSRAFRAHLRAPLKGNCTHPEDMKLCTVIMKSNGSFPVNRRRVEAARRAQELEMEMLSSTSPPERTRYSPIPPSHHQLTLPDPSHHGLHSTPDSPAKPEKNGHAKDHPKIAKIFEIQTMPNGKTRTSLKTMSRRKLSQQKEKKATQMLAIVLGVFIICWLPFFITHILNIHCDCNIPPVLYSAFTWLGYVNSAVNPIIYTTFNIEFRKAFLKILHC
D(3) dopamine receptor, sequence (P35462 whole entry): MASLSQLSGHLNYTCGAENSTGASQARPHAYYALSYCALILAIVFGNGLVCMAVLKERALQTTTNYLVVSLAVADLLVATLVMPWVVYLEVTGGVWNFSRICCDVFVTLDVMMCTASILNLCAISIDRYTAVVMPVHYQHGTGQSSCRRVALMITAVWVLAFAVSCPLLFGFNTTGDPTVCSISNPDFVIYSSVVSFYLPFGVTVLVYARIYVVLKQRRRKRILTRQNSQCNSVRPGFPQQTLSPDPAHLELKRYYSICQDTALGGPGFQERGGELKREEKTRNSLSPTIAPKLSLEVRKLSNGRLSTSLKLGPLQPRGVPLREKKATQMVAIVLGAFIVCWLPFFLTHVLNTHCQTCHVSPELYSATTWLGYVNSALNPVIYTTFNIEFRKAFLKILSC

Take `CCN(Cc1ccccc1)S(=O)(=O)c1ccc(OC)c(-c2ccc(CN3CCCCCC3c3ccccc3)[nH]2)c1` (stereo unspecified): the values for the Ki at D(2) dopamine receptor and at D(3) dopamine receptor were 0.501 µM and 0.00631 µM, respectively. Besides, the Selectivity in test [1] came out at 80.

In the case of `COc1ccc(S(=O)(=O)N(C)c2ccccc2)cc1-c1ccc(CN2CCCCC[C@@H]2c2ccccc2)[nH]1`, the Ki (in general, the dissociation constant of the complex between target and ligand, obtained from inhibition or displacement) is 0.501 µM on D(2) dopamine receptor and 0.00398 µM at D(3) dopamine receptor. The Selectivity in test [1] is 125.

Take `COc1ccc(S(=O)(=O)Nc2ccccc2)cc1-c1ccc(CN2CCCCCC2c2ccccc2)[nH]1` (stereo unspecified): the Ki at D(2) dopamine receptor is 0.631 µM; at D(3) dopamine receptor, 0.0794 µM. Also, the Selectivity in test [1] is 8.

On to `COc1ccc(S(=O)(=O)N2CCc3ccccc3C2)cc1-c1ccc(CN2CCCCCC2c2ccccc2)[nH]1` (stereo unspecified), for which the Ki on D(2) dopamine receptor was 0.2 µM; on D(3) dopamine receptor, 0.002 µM. Further, the Selectivity in test [1] was 100.

As for `CCS(=O)(=O)c1ccc(OC)c(-c2ccc(CN3CCCCC[C@H]3c3ccccc3)[nH]2)c1`, the Ki on D(2) dopamine receptor was 0.1 µM; at D(3) dopamine receptor it was 0.00398 µM. Also, the Selectivity in test [1] is 25.

Turning to `COc1ccc(S(=O)(=O)N2CCOCC2)cc1-c1ccc(CN2CCCCCC2c2ccccc2)[nH]1` (stereo unspecified), the Ki is 0.1 µM on D(2) dopamine receptor and 0.00158 µM at D(3) dopamine receptor. For the same compound, in test [1], the Selectivity was found to be 60.

Take `CCS(=O)(=O)c1ccc(OC)c(-c2ccc(CN3CCCCC[C@@H]3c3ccccc3)[nH]2)c1`: the Ki is 0.0251 µM on D(2) dopamine receptor and 0.000794 µM on D(3) dopamine receptor. Further, the Selectivity in test [1] was determined as 30.

With `COc1ccc(S(=O)(=O)C(C)C)cc1-c1ccc(CN2CCCCCC2c2ccccc2)[nH]1` (stereo unspecified), the Ki is 0.2 µM at D(2) dopamine receptor and 0.00501 µM on D(3) dopamine receptor. The Selectivity in test [1] amounted to 40.

Regarding `COc1ccc(S(=O)(=O)N(C)C)cc1-c1ccc(CN2CCCCCC2c2ccccc2)[nH]1` (stereo unspecified), the Ki is 0.1 µM on D(2) dopamine receptor and 0.002 µM on D(3) dopamine receptor. In test [1], the Selectivity amounted to 50.

On to `COc1ccc(S(=O)(=O)N(C)c2ccccc2)cc1-c1ccc(CN2CCCCCC2c2ccccc2)[nH]1` (stereo unspecified), for which the Ki on D(2) dopamine receptor was 0.631 µM; at D(3) dopamine receptor, 0.00631 µM. In addition, the Selectivity in test [1] was 100.

As for `COc1ccc(S(=O)(=O)N(C)c2ccccc2)cc1-c1ccc(CN2CCCCC[C@H]2c2ccccc2)[nH]1`, the Ki at D(2) dopamine receptor is 1.58 µM; at D(3) dopamine receptor, 0.0158 µM. Moreover, in test [1], the Selectivity amounted to 100.

As to `COc1ccc(S(=O)(=O)N2CCCc3ccccc32)cc1-c1ccc(CN2CCCCCC2c2ccccc2)[nH]1` (stereo unspecified), the Ki at D(2) dopamine receptor was 1 µM; at D(3) dopamine receptor, 0.00631 µM. In addition, the Selectivity in test [1] is 150.

As to `CCS(=O)(=O)c1ccc(OC)c(-c2ccc(CN3CCCCCC3c3ccccc3)[nH]2)c1` (stereo unspecified), the Selectivity in test [1] came out at 30.

`COc1ccc(S(=O)(=O)Cc2ccccc2)cc1-c1ccc(CN2CCCCCC2c2ccccc2)[nH]1` (stereo unspecified): the Ki on D(2) dopamine receptor was 0.126 µM; at D(3) dopamine receptor it was 0.00398 µM. For the same compound, in test [1], the Selectivity was determined as 30.

Take `COc1ccc(S(N)(=O)=O)cc1-c1ccc(CN2CCCCCC2c2ccccc2)[nH]1` (stereo unspecified): the Ki at D(2) dopamine receptor is 0.398 µM; on D(3) dopamine receptor, 0.0398 µM. Further, in test [1], the Selectivity is 10.

As to `COc1ccc(S(=O)(=O)Oc2ccccc2)cc1-c1ccc(CN2CCCCCC2c2ccccc2)[nH]1` (stereo unspecified), the Ki on D(2) dopamine receptor is 1 µM; on D(3) dopamine receptor, 0.01 µM. Besides, the Selectivity in test [1] amounted to 100.
